Activity calls are given as the source filed them. Square brackets hold non-standard residues; d marks the D form. Peptide text beside a SMILES is read from it. * marks the point of attachment. Hyp = O=C(O)[CH]1C[CH](O)CN1; Cbz = O=C(OCc1ccccc1)*; OBn = c1ccc(CO*)cc1
Experiments:
[1] = target: T1, Caspase-3 (Homo sapiens, UniProt P42574); assay type: functional;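 also: Dose-response selectivity test against caspase-3 for candidate inhibitors of sentrin-specific proteases (SENPs)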
T1 sequence (P42574 whole entry): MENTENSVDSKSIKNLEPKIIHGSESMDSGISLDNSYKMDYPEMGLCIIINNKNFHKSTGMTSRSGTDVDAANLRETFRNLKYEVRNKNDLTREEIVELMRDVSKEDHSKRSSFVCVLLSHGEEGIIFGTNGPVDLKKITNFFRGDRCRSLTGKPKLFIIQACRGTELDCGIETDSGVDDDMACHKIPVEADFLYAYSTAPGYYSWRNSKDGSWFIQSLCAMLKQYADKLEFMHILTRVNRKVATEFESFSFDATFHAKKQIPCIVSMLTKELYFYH

[2] = target: T2, Sentrin-specific protease 7 (Homo sapiens, UniProt Q9BQF6); assay type: functional;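 also: Luminescence-based dose-response confirmation of ultra-high-throughput screening hits, measuring inhibition of SENP7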
T2 sequence (Q9BQF6 whole entry): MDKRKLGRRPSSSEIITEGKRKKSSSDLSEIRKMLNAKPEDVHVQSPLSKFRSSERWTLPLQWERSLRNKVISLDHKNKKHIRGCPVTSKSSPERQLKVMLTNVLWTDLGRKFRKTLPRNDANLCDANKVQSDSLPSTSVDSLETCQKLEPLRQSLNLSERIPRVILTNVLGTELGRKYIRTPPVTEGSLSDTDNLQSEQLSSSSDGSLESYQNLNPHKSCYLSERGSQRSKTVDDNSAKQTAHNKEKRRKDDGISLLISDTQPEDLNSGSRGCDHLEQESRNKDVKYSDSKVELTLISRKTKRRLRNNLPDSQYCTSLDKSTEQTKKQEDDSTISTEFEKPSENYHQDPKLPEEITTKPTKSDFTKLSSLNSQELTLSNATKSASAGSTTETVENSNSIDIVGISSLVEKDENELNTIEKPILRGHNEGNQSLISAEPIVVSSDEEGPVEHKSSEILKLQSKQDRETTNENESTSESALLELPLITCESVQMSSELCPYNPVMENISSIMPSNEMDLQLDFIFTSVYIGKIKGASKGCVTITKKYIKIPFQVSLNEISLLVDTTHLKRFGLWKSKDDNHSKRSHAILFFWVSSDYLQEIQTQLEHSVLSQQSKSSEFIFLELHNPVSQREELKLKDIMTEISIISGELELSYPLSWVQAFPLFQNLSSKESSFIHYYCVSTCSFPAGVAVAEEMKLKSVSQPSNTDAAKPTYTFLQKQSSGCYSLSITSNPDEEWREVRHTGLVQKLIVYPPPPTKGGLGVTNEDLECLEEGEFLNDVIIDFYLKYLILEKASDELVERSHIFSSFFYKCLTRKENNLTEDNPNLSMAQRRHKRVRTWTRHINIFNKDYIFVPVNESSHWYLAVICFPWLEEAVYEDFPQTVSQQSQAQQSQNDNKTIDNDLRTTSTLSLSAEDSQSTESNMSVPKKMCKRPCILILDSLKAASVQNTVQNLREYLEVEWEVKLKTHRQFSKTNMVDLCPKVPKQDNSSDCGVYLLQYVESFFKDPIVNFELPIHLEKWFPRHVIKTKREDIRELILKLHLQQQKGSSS

[3] = target: T3, Sentrin-specific protease 6 (Homo sapiens, UniProt Q9GZR1); assay type: functional;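 also: Luminescence-based dose-response confirmatory assay of SENP6 inhibition, following up an ultra-high-throughput screen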
T3 sequence (Q9GZR1 whole entry): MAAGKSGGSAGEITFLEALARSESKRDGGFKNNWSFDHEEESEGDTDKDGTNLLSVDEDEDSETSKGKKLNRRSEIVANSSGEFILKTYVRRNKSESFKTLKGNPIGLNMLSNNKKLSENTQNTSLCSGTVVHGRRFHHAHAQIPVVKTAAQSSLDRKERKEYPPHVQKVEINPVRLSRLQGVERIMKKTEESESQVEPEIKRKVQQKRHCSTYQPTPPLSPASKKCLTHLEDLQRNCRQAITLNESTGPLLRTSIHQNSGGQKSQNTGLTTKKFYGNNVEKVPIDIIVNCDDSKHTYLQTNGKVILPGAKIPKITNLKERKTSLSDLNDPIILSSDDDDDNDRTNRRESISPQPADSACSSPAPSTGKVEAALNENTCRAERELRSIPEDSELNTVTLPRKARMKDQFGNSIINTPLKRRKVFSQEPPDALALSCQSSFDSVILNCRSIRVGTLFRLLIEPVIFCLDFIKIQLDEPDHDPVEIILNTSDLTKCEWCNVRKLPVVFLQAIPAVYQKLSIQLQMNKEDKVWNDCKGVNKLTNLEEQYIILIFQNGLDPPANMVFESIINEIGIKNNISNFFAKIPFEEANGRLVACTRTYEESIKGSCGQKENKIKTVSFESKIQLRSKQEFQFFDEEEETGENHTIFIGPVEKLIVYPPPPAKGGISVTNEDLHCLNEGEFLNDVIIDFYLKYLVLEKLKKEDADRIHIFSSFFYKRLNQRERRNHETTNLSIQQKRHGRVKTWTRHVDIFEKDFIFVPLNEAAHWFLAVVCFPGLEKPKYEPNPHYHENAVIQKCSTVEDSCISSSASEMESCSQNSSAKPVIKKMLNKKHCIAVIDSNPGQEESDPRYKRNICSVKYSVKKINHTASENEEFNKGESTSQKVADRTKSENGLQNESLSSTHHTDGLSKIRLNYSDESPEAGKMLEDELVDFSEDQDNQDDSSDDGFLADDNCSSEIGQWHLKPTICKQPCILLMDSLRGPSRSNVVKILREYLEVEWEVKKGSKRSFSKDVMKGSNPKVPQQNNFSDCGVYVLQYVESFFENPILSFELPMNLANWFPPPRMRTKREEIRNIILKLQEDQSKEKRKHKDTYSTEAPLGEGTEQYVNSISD

[4] = target: T4, Sentrin-specific protease 8 (Homo sapiens, UniProt Q96LD8); assay type: functional;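 also: luminescence read-out of SENP8 inhibition, dose-response confirmation following an ultra-high-throughput screen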
T4 sequence (Q96LD8 whole entry): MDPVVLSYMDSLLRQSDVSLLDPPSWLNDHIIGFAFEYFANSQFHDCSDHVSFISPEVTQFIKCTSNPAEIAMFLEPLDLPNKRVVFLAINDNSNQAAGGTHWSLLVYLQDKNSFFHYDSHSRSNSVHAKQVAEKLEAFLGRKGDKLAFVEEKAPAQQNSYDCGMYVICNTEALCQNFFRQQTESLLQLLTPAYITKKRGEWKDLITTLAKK

[5] = tested on: Vero; test: viability of Vero cells under compound – cytotoxicity control for flavivirus capping enzyme inhibitors (AID 588742); assay type: functional; settings: Chlorocebus sabaeus
[6] = tested on: H9c2; test: cells; assay type: functional, cell-based; settings: Rattus norvegicus, H9c2, Myocardium;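 also: confirmatory concentration-response retest of ultra-high-throughput screening hits for modulation of myocardial damage; cell death induced by hydrogen peroxide oxidative stress; compound pretreatment for 60 min then peroxide exposure for 2 h; potency is for protecting the cells against peroxide damage rather than for killing them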
[7] = tested on: BJ; test: BJ-TERT fibroblast viability loss – cell-based, RAS-independent, luminescence, dose response (AID 1933); assay type: functional; settings: Homo sapiens
[8] = tested on: BJ; test: cells; assay type: functional, cell-based; settings: Homo sapiens
[9] = tested on: BJ; test: BJ-TERT-LT-ST fibroblast viability loss – cell-based, RAS-independent, luminescence, dose response (AID 1935); assay type: functional; settings: Homo sapiens;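 also: BJ fibroblasts immortalized with TERT plus LT and ST oncogenes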
[10] = DRD fibroblast viability loss – cell-based, non-viral oncogenic, luminescence, dose response (AID 1934); assay type: functional; settings: Homo sapiens
[11] = tested on: BJ; test: growth inhibition of engineered Ras-driven BJ cells – cell-based, alamar blue fluorescence, cherrypicked samples, dose response (AID 2631); assay type: functional; settings: Homo sapiens;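 also: confirmatory dose-response assay in RAS-dependent BJ fibroblasts engineered with TERT, LT and ST, with cytotoxicity read by fluorescence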
[12] = tested on: Vero; test: cells; assay type: functional; settings: Chlorocebus sabaeus
[13] = tested on: HEK293; test: EBV LMP1 TES2 canonical NF-kB signalling blockers – cell-based, HEK293, luciferase, cherry-pick, dose response (AID 588343); assay type: functional; settings: Homo sapiens

What does the source list for `Cc1cc(C=C2C(=O)c3ccccc3C2=O)c(C)n1C`?
IC50 [1]: 35.2 µM (active); IC50 [2]: 24.6 µM (active); IC50 [3]: 56.1 µM (active); IC50 [4]: 74.6 µM (active)

Which CC50 [5] does the source give for `Oc1ccc2oc3c(c2c1/C=N/Cc1ccncc1)CCCC3` here?
Its CC50 is > 40 µM (active).

And the IC50 [6]?
Its IC50 is > 79 µM (inactive).

For `O=C(CCCN1C(=O)/C(=C/c2cccc(Br)c2)SC1=S)NCCCN1CCOCC1`, which EC50 [7] is on record?
Its EC50 is 2.78 µM (inconclusive).

And the EC50 [8]?
The EC50 was 14.7 µM (active).

And the EC50 [9]?
Its EC50 is > 150 µM (not active).

And the EC50 [10]?
Its EC50 is 17.1 µM (active).

And the EC50 [11]?
Its EC50 is > 133 µM (inactive).

And the CC50 [12]?
The CC50 was > 25 µM (active).

With `CC(NC(=O)CNC(=O)OCc1ccccc1)C(=O)N1CC(O)CC1C(=O)OCc1ccccc1` (stereo not drawn) (Cbz-Gly-Ala-[Hyp]-OBn; configuration not given here) as the compound, how does the AC50 [13] read?
The AC50 was 273 µM (active).

From ChEMBL document CHEMBL1201862, “PubChem BioAssay data set” (2004)
